Experiments:
Type in all cases: functional
[1] = system: UACC-62; test: Cytotoxicity against human UACC62 cells assessed as cell growth at 1 uM after 1 to 11 days by MTT assay; conditions: read-out: Activity
[2] = system: OVCAR-8; test: Cytotoxicity against human OVCAR8 cells assessed as cell growth at 1 uM after 1 to 11 days by MTT assay; conditions: read-out: Activity
[3] = system: IGROV-1; test: Cytotoxicity against human IGROV1 cells assessed as cell growth at 10 uM after 1 to 11 days by MTT assay; conditions: read-out: Activity
[4] = system: 786-0; test: Cytotoxicity against human 786-0 cells assessed as cell growth at 10 uM after 1 to 11 days by MTT assay; conditions: read-out: Activity
[5] = system: CCRF-CEM; test: Cytotoxicity against human CCRF-CEM cells assessed as cell growth at 10 uM after 1 to 11 days by MTT assay; conditions: read-out: Activity
[6] = system: NCI-H522; test: Cytotoxicity against human NCI-H522 cells assessed as cell growth at 10 uM after 1 to 11 days by MTT assay; conditions: read-out: Activity
[7] = system: COLO 205; test: Cytotoxicity against human COLO205 cells assessed as cell growth at 10 uM after 1 to 11 days by MTT assay; conditions: read-out: Activity
[8] = system: UACC-257; test: Cytotoxicity against human UACC257 cells assessed as cell growth at 100 uM after 1 to 11 days by MTT assay; conditions: read-out: Activity
[9] = system: DU-145; test: Cytotoxicity against human DU145 cells assessed as cell growth at 10 uM after 1 to 11 days by MTT assay; conditions: read-out: Activity
[10] = system: HL-60(TB); test: Cytotoxicity against human HL-60(TB) cells assessed as cell growth at 100 uM after 1 to 11 days by MTT assay; conditions: read-out: Activity
[11] = system: SR; test: Cytotoxicity against human SR cells assessed as cell growth at 100 uM after 1 to 11 days by MTT assay; conditions: read-out: Activity
[12] = system: NCI-H460; test: Cytotoxicity against human NCI-H460 cells assessed as cell growth at 100 uM after 1 to 11 days by MTT assay; conditions: read-out: Activity
[13] = system: OVCAR-3; test: Cytotoxicity against human OVCAR-3 cells assessed as cell growth at 100 uM after 1 to 11 days by MTT assay; conditions: read-out: Activity
[14] = system: TK-10; test: Cytotoxicity against human TK10 cells assessed as cell growth at 100 uM after 1 to 11 days by MTT assay; conditions: read-out: Activity
[15] = system: T47D; test: Cytotoxicity against human T47D cells assessed as cell growth at 100 uM after 1 to 11 days by MTT assay; conditions: read-out: Activity
[16] = system: MOLT-4; test: Cytotoxicity against human MOLT4 cells assessed as cell growth at 1 mM after 1 to 11 days by MTT assay; conditions: read-out: Activity
[17] = system: COLO 205; test: Cytotoxicity against human COLO205 cells assessed as cell growth at 1 mM after 1 to 11 days by MTT assay; conditions: read-out: Activity
[18] = system: HCT-116; test: Cytotoxicity against human HCT116 cells assessed as cell growth at 1 mM after 1 to 11 days by MTT assay; conditions: read-out: Activity
[19] = system: SW-620; test: Cytotoxicity against human SW620 cells assessed as cell growth at 1 mM after 1 to 11 days by MTT assay; conditions: read-out: Activity
[20] = system: SR; test: Cytotoxicity against human SR cells after 1 to 11 days by MTT assay
[21] = system: NCI-H226; test: Cytotoxicity against human NCI-H226 cells after 1 to 11 days by MTT assay
[22] = system: NCI-H23; test: Cytotoxicity against human NCI-H23 cells after 1 to 11 days by MTT assay
[23] = system: COLO 205; test: Cytotoxicity against human COLO205 cells after 1 to 11 days by MTT assay
[24] = system: U-251; test: Cytotoxicity against human U251 cells assessed as cell growth at 100 uM after 1 to 11 days by MTT assay; conditions: read-out: Activity
[25] = system: SNB-19; test: Cytotoxicity against human SNB19 cells assessed as cell growth at 1 mM after 1 to 11 days by MTT assay; conditions: read-out: Activity
[26] = system: ACHN; test: Cytotoxicity against human ACHN cells assessed as cell growth at 1 mM after 1 to 11 days by MTT assay; conditions: read-out: Activity
[27] = system: MDA-MB-231; test: Cytotoxicity against human MDA-MB-231 cells assessed as cell growth at 1 mM after 1 to 11 days by MTT assay; conditions: read-out: Activity
[28] = system: CCRF-CEM; test: Cytotoxicity against human CCRF-CEM cells after 1 to 11 days by MTT assay
[29] = system: OVCAR-4; test: Cytotoxicity against human OVCAR4 cells after 1 to 11 days by MTT assay
[30] = system: SK-OV-3; test: Cytotoxicity against human SKOV3 cells after 1 to 11 days by MTT assay
[31] = system: 786-0; test: Cytotoxicity against human 786-0 cells after 1 to 11 days by MTT assay
[32] = system: TK-10; test: Cytotoxicity against human TK10 cells after 1 to 11 days by MTT assay
[33] = system: K562; test: Cytotoxicity against human K562 cells assessed as cell growth at 0.1 uM after 1 to 11 days by MTT assay; conditions: read-out: Activity
[34] = system: UACC-257; test: Cytotoxicity against human UACC257 cells assessed as cell growth at 0.1 uM after 1 to 11 days by MTT assay; conditions: read-out: Activity
[35] = system: HOP-62; test: Cytotoxicity against human HOP62 cells assessed as cell growth at 0.1 uM after 1 to 11 days by MTT assay; conditions: read-out: Activity
[36] = system: NCI-H322M; test: Cytotoxicity against human NCI-H322M cells assessed as cell growth at 0.1 uM after 1 to 11 days by MTT assay; conditions: read-out: Activity
[37] = system: SK-OV-3; test: Cytotoxicity against human SKOV3 cells assessed as cell growth at 0.1 uM after 1 to 11 days by MTT assay; conditions: read-out: Activity
[38] = system: CCRF-CEM; test: Cytotoxicity against human CCRF-CEM cells assessed as cell growth at 1 uM after 1 to 11 days by MTT assay; conditions: read-out: Activity
[39] = system: K562; test: Cytotoxicity against human K562 cells assessed as cell growth at 1 uM after 1 to 11 days by MTT assay; conditions: read-out: Activity
[40] = system: HCT-116; test: Cytotoxicity against human HCT116 cells assessed as cell growth at 1 uM after 1 to 11 days by MTT assay; conditions: read-out: Activity
[41] = system: SNB-19; test: Cytotoxicity against human SNB19 cells assessed as cell growth at 1 uM after 1 to 11 days by MTT assay; conditions: read-out: Activity
[42] = system: LOX IMVI; test: Cytotoxicity against human LOXIMVI cells assessed as cell growth at 1 uM after 1 to 11 days by MTT assay; conditions: read-out: Activity
[43] = system: Malme-3M; test: Cytotoxicity against human MALME-3M cells assessed as cell growth at 1 uM after 1 to 11 days by MTT assay; conditions: read-out: Activity
[44] = system: UACC-257; test: Cytotoxicity against human UACC257 cells assessed as cell growth at 1 uM after 1 to 11 days by MTT assay; conditions: read-out: Activity
[45] = read-out: LC50 (the source's name)

O=C1Nc2ncccc2/C1=C1/Nc2ccccc2/C1=N\O
growth at 1 µM [1]: 88% | growth at 1 µM [2]: 85% | growth at 10 µM [3]: 60% | growth at 10 µM [4]: 114% | growth at 10 µM [5]: 82% | growth at 10 µM [6]: 99% | growth at 10 µM [7]: 84% | growth at 100 µM [8]: 79% | growth at 10 µM [9]: 84% | growth at 100 µM [10]: 38% | growth at 100 µM [11]: 29% | growth at 100 µM [12]: 41% | growth at 100 µM [13]: 51% | growth at 100 µM [14]: 49% | growth at 100 µM [15]: 16% | growth at 1000 µM [16]: 18% | growth at 1000 µM [17]: 23% | growth at 1000 µM [18]: 50% | growth at 1000 µM [19]: 39% | GI50 [20]: 6.65 µM | TGI [20]: > 100 µM | CC50 [20, 45]: > 100 µM | GI50 [21]: 1.14 µM | TGI [21]: > 100 µM | CC50 [21, 45]: > 100 µM | GI50 [22]: > 100 µM | TGI [22]: > 100 µM | CC50 [22, 45]: > 100 µM | GI50 [23]: 1.73 µM | TGI [23]: > 100 µM | CC50 [23, 45]: > 100 µM | growth at 100 µM [24]: 55% | growth at 1000 µM [25]: 83% | growth at 1000 µM [26]: 17% | growth at 1000 µM [27]: 2% | GI50 [28]: 5.07 µM | TGI [28]: > 100 µM | CC50 [28, 45]: > 100 µM | GI50 [29]: 9.1 µM | TGI [29]: > 100 µM | CC50 [29, 45]: > 100 µM | GI50 [30]: 1.79 µM | CC50 [30, 45]: > 100 µM | GI50 [31]: 7.46 µM | CC50 [31, 45]: > 100 µM | GI50 [32]: 9.72 µM | TGI [32]: > 100 µM | CC50 [32, 45]: > 100 µM | growth at 0.1 µM [33]: 88% | growth at 0.1 µM [34]: 98% | growth at 0.1 µM [35]: 102% | growth at 0.1 µM [36]: 95% | growth at 0.1 µM [37]: 100% | growth at 1 µM [38]: 76% | growth at 1 µM [39]: 76% | growth at 1 µM [40]: 107% | growth at 1 µM [41]: 97% | growth at 1 µM [42]: 97% | growth at 1 µM [43]: 89% | growth at 1 µM [44]: 92%
